Assay results published in BigSolDB 2.1.

CO/N=C(\C(=O)N[C@@H]1C(=O)N2C(C(=O)[O-])=C(COC(C)=O)CS[C@H]12)c1csc(N)n1.[Na+]
solubility (mole fraction)
Conditions | in DMF | in DMSO | in NMP | in formamide | in water
278.15 K | 0.0407 | – | 0.000254 | 0.0483 | 0.018
280.15 K | 0.0413 | – | 0.000935 | 0.0503 | 0.0181
282.15 K | – | – | – | – | 0.0182
283.15 K | 0.0436 | – | 0.00152 | 0.053 | 0.0183
285.15 K | 0.0462 | – | 0.00192 | 0.0562 | 0.0184
287.15 K | – | – | – | – | 0.0184
288.15 K | 0.0474 | – | 0.00279 | 0.0596 | 0.0184
290.15 K | 0.0537 | – | 0.00383 | 0.0615 | 0.0185
292.15 K | – | – | – | – | 0.0186
293.15 K | 0.057 | 0.0738 | 0.00524 | 0.0644 | 0.0188
295.15 K | 0.06 | 0.0744 | 0.00869 | 0.0652 | 0.0188
297.15 K | – | 0.0751 | – | – | 0.0189
298.15 K | 0.0662 | 0.0755 | 0.0118 | 0.0674 | 0.0189
300.15 K | 0.069 | 0.077 | 0.038 | 0.0688 | –
302.15 K | – | 0.0777 | – | – | –
303.15 K | 0.0757 | 0.0779 | 0.0737 | 0.0702 | –
305.15 K | 0.0785 | 0.0783 | 0.083 | 0.0719 | –
307.15 K | – | 0.0785 | – | – | –
308.15 K | 0.0845 | 0.0788 | 0.103 | 0.0733 | –
